Experimental data: PubChem BioAssay (NCI)
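Compound exposure: 48 hours, 5 concentrations, 96-well plates. GI50: concentration for 50% inhibition of growth. Definition used: TGI = concentration required for complete inhibition of growth.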

Columns and labels:
Experiment in all cases: DTP human tumour cell line panel, 48 h; in the data active = GI50 below about 0.43 µM; inactive = the rest
[1] = test system: SW-620 colon
[2] = test system: TK-10 renal
[3] = test system: BT-549 breast
[4] = test system: K-562 leukemia
[5] = test system: MCF7 breast
[6] = test system: NCI/ADR-RES ovarian
[7] = test system: DU-145 prostate
[8] = test system: CAKI-1 renal
[9] = test system: NCI-H23 lung
[10] = test system: SK-MEL-2 melanoma
[11] = test system: HCC-2998 colon
[12] = test system: OVCAR-4 ovarian
[13] = test system: CCRF-CEM leukemia
[14] = test system: IGROV1 ovarian
[15] = test system: NCI-H460 lung
[16] = test system: UO-31 renal
[17] = test system: NCI-H226 lung
[18] = test system: HCT-116 colon
[19] = test system: HL-60(TB) leukemia
[20] = test system: SR leukemia
[21] = test system: HOP-62 NSCLC
[22] = test system: PC-3 prostate
[23] = test system: T-47D breast
[24] = test system: SNB-19 CNS
[25] = test system: A498 renal
[26] = test system: MDA-MB-231 breast
[27] = test system: MOLT-4 leukemia
[28] = test system: SN12C renal
[29] = test system: MALME-3M melanoma
[30] = test system: U251 CNS
[31] = test system: OVCAR-3 ovarian
[32] = test system: SF-295 CNS
[33] = test system: SNB-75 CNS
[34] = test system: MDA-MB-435
[35] = test system: NCI-H522 lung
[36] = test system: M14 melanoma
[37] = test system: HS 578T breast
[38] = test system: SK-MEL-5 melanoma
[39] = test system: SK-MEL-28 melanoma
[40] = test system: OVCAR-5 ovarian
[41] = test system: ACHN renal
[42] = test system: HCT-15 colon
[43] = test system: LOX IMVI melanoma
[44] = test system: HOP-92 NSCLC
[45] = test system: A549 NSCLC
[46] = test system: RXF 393 renal
[47] = test system: HT29 colon
[48] = test system: RPMI-8226 leukemia
[49] = test system: SK-OV-3 ovarian
[50] = test system: OVCAR-8 ovarian
[51] = test system: SF-268 CNS
[52] = test system: UACC-257 melanoma
[53] = test system: SF-539 CNS
[54] = test system: KM12 colon
[55] = test system: UACC-62 melanoma
[56] = test system: 786-0 renal
[57] = test system: COLO 205 colon

CN([N-]C(=O)CC(=O)[N-]N(C)C(=S)c1ccccc1)C(=S)c1ccccc1.[Cu+2]
0.225 µM: TGI [32]
0.275 µM: TGI [21] | TGI [53]
0.146 µM: TGI [25]
active: GI50 [1] 0.0206 µM | GI50 [2] 0.0461 µM | GI50 [3] 0.138 µM | GI50 [4] < 0.01 µM | GI50 [5] < 0.01 µM | GI50 [6] < 0.0261 µM | GI50 [7] 0.033 µM | GI50 [8] 0.0459 µM | GI50 [9] 0.0241 µM | GI50 [10] 0.113 µM | GI50 [11] 0.0598 µM | GI50 [12] < 0.01 µM | GI50 [13] < 0.01 µM | GI50 [14] < 0.01 µM | GI50 [15] 0.0227 µM | GI50 [16] 0.0666 µM | GI50 [17] 0.183 µM | GI50 [18] < 0.01 µM | GI50 [19] 0.0663 µM | GI50 [20] < 0.01 µM | GI50 [21] 0.134 µM | GI50 [22] 0.0101 µM | GI50 [23] < 0.01 µM | GI50 [24] 0.129 µM | GI50 [25] 0.0346 µM | GI50 [26] 0.0221 µM | GI50 [27] < 0.0108 µM | GI50 [28] 0.124 µM | GI50 [29] 0.0194 µM | GI50 [30] 0.0331 µM | GI50 [31] < 0.01 µM | GI50 [32] 0.0635 µM | GI50 [33] 0.0298 µM | GI50 [34] 0.0437 µM | GI50 [35] < 0.013 µM | GI50 [36] 0.0377 µM | GI50 [37] 0.0851 µM | GI50 [38] 0.0599 µM | GI50 [39] 0.035 µM | GI50 [40] 0.0445 µM | GI50 [41] 0.0825 µM | GI50 [42] 0.0228 µM | GI50 [43] < 0.0129 µM | GI50 [44] 0.0333 µM | GI50 [45] 0.0223 µM | GI50 [46] 0.0266 µM | GI50 [48] 0.0284 µM | GI50 [49] 0.0263 µM | GI50 [50] 0.0598 µM | GI50 [51] 0.037 µM | GI50 [52] < 0.01 µM | GI50 [53] 0.142 µM | GI50 [54] 0.0353 µM | GI50 [55] 0.0332 µM | GI50 [56] 0.0503 µM | GI50 [57] < 0.01 µM
0.101 µM: TGI [23]
0.149 µM: TGI [55]
0.0406 µM: TGI [14]
0.192 µM: TGI [38]
0.175 µM: TGI [40]
0.0275 µM: TGI [47]
0.0256 µM: TGI [57]
0.171 µM: TGI [34]
0.152 µM: TGI [54]
0.121 µM: TGI [13]
0.619 µM: TGI [37]
0.232 µM: TGI [50]
0.0284 µM: TGI [5]
0.114 µM: TGI [49]
0.467 µM: TGI [17]
0.22 µM: TGI [27] | TGI [41]
0.13 µM: TGI [42]
0.253 µM: TGI [28]
0.116 µM: TGI [33] | TGI [56]
0.125 µM: TGI [30]
0.014 µM: TGI [18]
0.0729 µM: TGI [46]
0.141 µM: TGI [9]
0.098 µM: TGI [44]
0.231 µM: TGI [16]
0.127 µM: TGI [39]
0.14 µM: TGI [15]
0.0585 µM: TGI [29]
0.132 µM: TGI [26]
0.271 µM: TGI [3]
0.176 µM: TGI [11] | TGI [51]
0.0281 µM: TGI [35]
0.159 µM: TGI [8]
0.0689 µM: TGI [22]
0.263 µM: TGI [10]
0.03 µM: TGI [31]
0.0619 µM: TGI [12]
0.174 µM: TGI [2]
0.108 µM: TGI [1]
0.172 µM: TGI [36]
0.063 µM: TGI [52]
0.119 µM: TGI [45]
0.456 µM: TGI [6]
0.133 µM: TGI [7]
0.261 µM: TGI [24]
0.224 µM: TGI [48]
0.0683 µM: TGI [43]

CC(=O)OC1CC(C)c2c1ncnc2N1CCN(C(=O)OC(C)(C)C)CC1 (stereo not drawn)
91.4 µM: TGI [44]
93.1 µM: TGI [10]
47.2 µM: TGI [35]
82.7 µM: TGI [31]
> 100 µM: TGI [1] | TGI [2] | TGI [3] | TGI [4] | TGI [5] | TGI [6] | TGI [8] | TGI [9] | TGI [11] | TGI [12] | TGI [13] | TGI [14] | TGI [15] | TGI [16] | TGI [17] | TGI [18] | TGI [21] | TGI [22] | TGI [23] | TGI [24] | TGI [25] | TGI [26] | TGI [27] | TGI [28] | TGI [29] | TGI [33] | TGI [36] | TGI [37] | TGI [38] | TGI [39] | TGI [40] | TGI [41] | TGI [42] | TGI [43] | TGI [45] | TGI [46] | TGI [48] | TGI [49] | TGI [50] | TGI [51] | TGI [53] | TGI [54] | TGI [55] | TGI [56] | TGI [57]
inactive: GI50 [1] 42.9 µM | GI50 [2] 70.8 µM | GI50 [3] 61 µM | GI50 [4] 37.8 µM | GI50 [5] 39.1 µM | GI50 [6] 67.6 µM | GI50 [7] 31.9 µM | GI50 [8] 63.8 µM | GI50 [9] 58.9 µM | GI50 [10] 35.5 µM | GI50 [11] 69.6 µM | GI50 [12] 63.6 µM | GI50 [13] 32.9 µM | GI50 [14] 92.5 µM | GI50 [15] 34.7 µM | GI50 [16] > 100 µM | GI50 [17] 63.9 µM | GI50 [18] 38.1 µM | GI50 [19] 25.9 µM | GI50 [20] 21.6 µM | GI50 [21] 45.4 µM | GI50 [22] 38.7 µM | GI50 [23] 54 µM | GI50 [24] 78.5 µM | GI50 [25] 37.8 µM | GI50 [26] 42.8 µM | GI50 [27] 37.2 µM | GI50 [28] 79.4 µM | GI50 [29] 35.5 µM | GI50 [31] 32.3 µM | GI50 [33] 25.2 µM | GI50 [34] 19.8 µM | GI50 [35] 22.6 µM | GI50 [36] 30.4 µM | GI50 [37] 83.5 µM | GI50 [38] 37.8 µM | GI50 [39] 72.9 µM | GI50 [40] 99.2 µM | GI50 [41] 80.7 µM | GI50 [42] 55.3 µM | GI50 [43] 47.8 µM | GI50 [44] 19.4 µM | GI50 [45] 44.2 µM | GI50 [46] 31.9 µM | GI50 [47] 37.1 µM | GI50 [48] 35.1 µM | GI50 [49] 53.7 µM | GI50 [50] 54.3 µM | GI50 [51] 67.2 µM | GI50 [53] 30.8 µM | GI50 [54] 38.1 µM | GI50 [55] 46.4 µM | GI50 [56] 56.2 µM | GI50 [57] 38.5 µM
63.7 µM: TGI [20]
83.6 µM: TGI [19]
41 µM: TGI [34]
86.9 µM: TGI [7]
88.5 µM: TGI [47]
